Source: patent US20260250320A1, “LIPIDATED PEPTIDE INHIBITORS OF INTERLEUKIN-23 RECEPTOR” (Janssen Pharmaceutica NV, priority 2023, published 2026)
*1 amine or outer side, *2 acyl side, *3 side chain or, on linkers, in order; H or OH if unused. Where a SMILES comes first, the peptide text is derived from it. Bridges are numbered along the chain shown (N, C = ends). Side-chain parts run from the residue outwards. [ ]: non-standard residue; d: D form. The star is where a group is joined. ξ: configuration not given here. X22 = O=C(O)CCCCCCCCCCCCCCCCC(=O)N[C@@H](CCC(=O)NCCOCCOCC(=O)NCCCCCOCC(=O)*)C(=O)O; X34 = O=C(O)CCCCCCCCCCCCCCCCC(=O)C[C@@H](CCC(=O)NCCOCCOCC(=O)NCCOCCOCCN*)C(=O)O; Me3N+(CH2)2O(CH2)2O(CH2)2CO = C[N+](C)(C)CCOCCOCCC(=O)*; dTrp(7-Me) = Cc1cccc2c(C[C@@H](N)C(=O)O)c[nH]c12; Biotin = O=C1N[C@H]2[C@H](CS[C@H]2CCCCC(=O)*)N1; Trp(7-Me) = Cc1cccc2c(C[C@H](N)C(=O)O)c[nH]c12; C18 diacid = O=C(O)CCCCCCCCCCCCCCCCC(=O)*; γGlu = O=C(O)[C@H](CCC(=O)[*:2])N[*:1]; 2Nal = N[C@@H](Cc1ccc2ccccc2c1)C(=O)O; AEF = NCCOc1ccc(C[C@H](N)C(=O)O)cc1; ξγGlu = O=C(O)C(CCC(=O)[*:2])N[*:1]; X2 = C[N+](C)(C)C[C@@H](CC(=O)O)N*; 2Pal = N[C@@H](Cc1ccccn1)C(=O)O; 3Pal = N[C@@H](Cc1cccnc1)C(=O)O; Lys(Me) = CNCCCC[C@H](N)C(=O)O; NMeK = CN[C@@H](CCCCN)C(=O)O; PEG4 = NCCOCCOCCOCCOCCC(=O)O; Pen = CC(C)(S)[C@H](N)C(=O)O; Suc = O=C(CCC(=O)[*:2])[*:1]; Thp = NC1(C(=O)O)CCOCC1; X1 = C[N+](C)(C)CCCCC*; AEEA = NCCOCCOCC(=O)O; Sar = CNCC(=O)O

Columns and labels:
[1] = tested on: IL-23-stimulated phosphorylated STAT3 in peripheral blood mononuclear cells (PBMCs); test: PBMC pSTAT3 Assay; assay type: cell-based; conditions: PBMCs from healthy donors; 30 min preincubation with peptide; IL-23 5 ng/mL for 30 min; phospho-STAT3 by MSD
Summary of the method: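 Phospho-STAT3 quantified by Meso Scale assay in lysates of PBMCs exposed to IL-23 (5 ng/mL, 30 min, 37 °C) after 30 min peptide pretreatment. Cells were cryopreserved donor PBMCs activated 4 days with anti-CD3 plus IL-1β (100 ng/mL) and starved ~4 h; IC50 reported.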

IL-23R = target: T1, IL-23R (Homo sapiens, UniProt Q5VWK5); test: IL23R Reporter Assay; assay type: cell-based; conditions: HEK293 cells containing IL-23R, IL-12Rβ1 and STAT-inducible firefly luciferase reporter; 10 ng/mL IL-23 (EC90); 5 h
T1 construct: HEK293 cells containing IL-23R, IL-12Rβ1 and a firefly luciferase reporter gene driven by a STAT-inducible promoter (Promega); host or cells: HEK293
T1 sequence (Q5VWK5 24-629): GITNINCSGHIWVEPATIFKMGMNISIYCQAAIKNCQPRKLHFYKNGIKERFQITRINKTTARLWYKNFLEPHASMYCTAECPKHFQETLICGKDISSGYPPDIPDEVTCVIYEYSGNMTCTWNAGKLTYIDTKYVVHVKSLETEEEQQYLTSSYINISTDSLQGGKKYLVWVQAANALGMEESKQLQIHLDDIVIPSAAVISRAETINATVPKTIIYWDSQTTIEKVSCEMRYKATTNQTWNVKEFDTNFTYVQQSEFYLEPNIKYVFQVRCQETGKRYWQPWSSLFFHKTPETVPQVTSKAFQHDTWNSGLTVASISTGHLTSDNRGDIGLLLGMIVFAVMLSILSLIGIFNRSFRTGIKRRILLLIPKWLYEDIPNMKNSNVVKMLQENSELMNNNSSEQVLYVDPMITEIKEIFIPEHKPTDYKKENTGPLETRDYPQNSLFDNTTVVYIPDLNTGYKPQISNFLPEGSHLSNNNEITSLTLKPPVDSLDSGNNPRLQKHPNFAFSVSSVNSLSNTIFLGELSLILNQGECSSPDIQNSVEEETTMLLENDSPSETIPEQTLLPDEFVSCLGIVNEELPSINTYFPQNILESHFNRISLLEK
Summary of the method: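 IC50 values were fitted with a 4-parameter Hill equation to luciferase signal, scaled between IL-23-only wells (0% inhibition) and 30 μM reference inhibitor (100%). The readout was a STAT-inducible reporter in IL-23R/IL-12Rβ1 HEK293 cells, stimulated with added 10 ng/mL IL-23 (EC90) for 5 h at 37° C and developed with BioGlo.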

Row | Structure (SMILES) | IC50 [1] | IC50 (IL-23R)
1 | CC(=O)N(C)CCCC[C@@H]1NC(=O)[C@H](Cc2c[nH]c3c(C)cccc23)NC(=O)[C@H]([C@@H](C)O)NC(=O)[C@H](CC(=O)N(C)C)NC(=O)[C@@H](NC(=O)CCOCCOCC[N+](C)(C)C)C(C)(C)SSC(C)(C)[C@@H](C(=O)N[C@@H](Cc2ccc(OCCCCC[N+](C)(C)C)cc2)C(=O)N[C@@H](Cc2ccc3ccccc3c2)C(=O)NC2(C(=O)N[C@@H](CCCCN(C)C(C)=O)C(=O)N[C@@H](CC(N)=O)C(=O)N[C@@H](Cc3cccnc3)C(=O)N(C)CC(=O)NCCOCCOCCNC(=O)COCCOCCNC(=O)CC[C@H](CC(=O)CCCCCCCCCCCCCCCCC(=O)O)C(=O)O)CCOCC2)NC1=O [compound 145, cPEG3aCO-Pen(3)-N(N(Me)2)-T-7MeW-K(NMeAc)-Pen(3)-TMAPF-2Nal-THP-K(NMeAc)-N-3Pya-Sar-CO(PEG2PEG2gEC18OH)] ({Me3N+(CH2)2O(CH2)2O(CH2)2CO}-[Pen]D(NMe2)T[Trp(7-Me)][Lys(Me)](Ac)[Pen]Y(X1)[2Nal][Thp][Lys(Me)](Ac)N[3Pal][Sar]-X34; disulfide 1-6) | ≥ 5 nM | 50 to 500 nM
2 | CC(=O)NCCCC[C@@H]1NC(=O)[C@H](Cc2c[nH]c3c(C)cccc23)NC(=O)[C@H]([C@@H](C)O)NC(=O)[C@H](CC(N)=O)NC(=O)[C@@H](NC(=O)[C@@H](CCCCNC(=O)COCCOCCNC(=O)COCCOCCNC(=O)CCC(NC(=O)CCCCCCCCCCCCCCCCC(=O)O)C(=O)O)NC(C)=O)C(C)(C)SSC(C)(C)[C@@H](C(=O)N[C@@H](Cc2ccc(OCCN)cc2)C(=O)N[C@@H](Cc2ccc3ccccc3c2)C(=O)NC2(C(=O)N[C@@H](CCC(=O)O)C(=O)N[C@@H](CC(N)=O)C(=O)N[C@@H](Cc3cccnc3)C(=O)N(C)[C@@H](CCCCNC(=O)CCC(=O)N[C@H](CC(=O)O)C[N+](C)(C)C)C(N)=O)CCOCC2)NC1=O (some centres unmarked) [compound 42, MeCO-k(PEG2PEG2gEC18OH)-Pen(3)-N-T-7MeW-K(Ac)-Pen(3)-AEF-2Nal-THP-E-N-3Pya-NMeK(d)-CONH2] (Ac-[dK]([AEEA-AEEA-ξγGlu-C18 diacid])[Pen]NT[Trp(7-Me)]K(Ac)[Pen][AEF][2Nal][Thp]EN[3Pal][NMeK]([Suc-X2])-NH2; disulfide 2-7) | < 0.5 nM | < 50 nM
3 | CC(=O)NCCCC[C@@H]1NC(=O)[C@H](Cc2c[nH]c3c(C)cccc23)NC(=O)[C@H]([C@@H](C)O)NC(=O)[C@H](CC(N)=O)NC(=O)[C@@H](NC(=O)[C@@H](CCCNC(=N)N)NC(=O)CCC(=O)N[C@H](CC(=O)O)C[N+](C)(C)C)C(C)(C)SSC(C)(C)[C@@H](C(=O)N[C@@H](Cc2ccc(OCCN)cc2)C(=O)N[C@@H](Cc2ccc3ccccc3c2)C(=O)NC2(C(=O)N[C@@H](CCCCNC(=O)COCCOCCNC(=O)COCCOCCNC(=O)CC[C@H](NC(=O)CCCCCCCCCCCCCCCCC(=O)O)C(=O)O)C(=O)N[C@@H](CC(N)=O)C(=O)N[C@@H](Cc3ccccn3)C(=O)N(C)CC(N)=O)CCOCC2)NC1=O [compound 49, succiniccarn-r-Pen(3)-N-T-7MeW-K(Ac)-Pen(3)-AEF-2Nal-THP-K(PEG2PEG2gEC18OH)-N-3Pya-Sar-CONH2] ({X2-Suc}-[dR][Pen]NT[Trp(7-Me)]K(Ac)[Pen][AEF][2Nal][Thp]K([AEEA-AEEA-γGlu-C18 diacid])N[2Pal][Sar]-NH2; disulfide 2-7) | < 0.5 nM | 50 to 500 nM
4 | CC(=O)NCCCC[C@@H]1NC(=O)[C@@H](Cc2c[nH]c3c(C)cccc23)NC(=O)[C@H]([C@@H](C)O)NC(=O)[C@H](CC(N)=O)NC(=O)[C@@H](NC(=O)[C@@H](CCCNC(=N)N)NC(=O)CCOCCOCCOCCOCCNC(=O)CCCC[C@@H]2SC[C@@H]3NC(=O)N[C@@H]32)C(C)(C)SSC(C)(C)[C@@H](C(=O)N[C@@H](Cc2ccc(OCCN)cc2)C(=O)N[C@@H](Cc2ccc3ccccc3c2)C(=O)NC2(C(=O)N[C@@H](CCC(=O)O)C(=O)N[C@@H](CC(N)=O)C(=O)N[C@@H](Cc3cccnc3)C(=O)N(C)CC(=O)N[C@@H](CCCCNC(=O)COCCCCCNC(=O)COCCOCCNC(=O)CC[C@H](NC(=O)CCCCCCCCCCCCCCCCC(=O)O)C(=O)O)C(N)=O)CCOCC2)NC1=O [compound 57, BiotinPEG4CO-r-Pen(3)-N-T-7MeW-K(Ac)-Pen(3)-AEF-2Nal-THP-E-N-3Pya-Sar-K(PEG2PEG2gEC18OH)-CONH2] ({Biotin-PEG4}-[dR][Pen]NT[dTrp(7-Me)]K(Ac)[Pen][AEF][2Nal][Thp]EN[3Pal][Sar]K(X22)-NH2; disulfide 2-7) | < 0.5 nM | < 50 nM
